# Test system: adult hippocampus-derived neural progenitor cells
# Experiment: cell death by live staining with propidium iodide and Hoechst 33342
# Assay type: cell-based, rat
# Details: 500 ng/ml IGF-I
# Description: We first directly measured the effect of IGF-I on cell survival. We asked whether a selective decrease in the death of oligodendrocytes (and/or oligodendrocyte progenitors) could explain the net increase in number of oligodendrocytes (defined by the expression of RIP, a marker of both immature and mature oligodendrocytes). […] To quantify cell death of the progeny of neural progenitor cells, living cultures were stained with propidium iodide (1 μg/ml), which stains dead cells, and Hoechst 33342 (1 μg/ml), which stains live and dead cells. Staining of live, rather than fixed, cultures was used to avoid underestimating cell death due to possible detachment of dying and/or dead cells from culture substrates. […]
# Cells were fixed with 4% paraformaldehyde, followed by immunocytochemical staining as described (Palmer et al., 1999). […] Quantification of cell phenotypes was with StereoInvestigator (MicroBrightfield Inc.); for each marker, 500-1000 cells were sampled systematically from standardized fields at 40×magnification. For quantification of live/dead cells, images were taken of cultures live-stained with propidum iodide (1 μg/ml; Molecular Probes) and Hoescht 33342 (1 μg/ml; Sigma) at 10×magnification, and cells were counted using Image-Pro (Media Cybernetics). […]
substance,measurement,setting,value
"IGF-I: human recombinant IGF-I (R&D Systems), growth factor polypeptide",percentage of dead/dying cells,every 12 hours up to 48 h,relatively small percentage of dead/dying cells
same,change in the percentage of cells that died between time points,one-way ANOVA,no significant change
